Measured values as given in US11639353B2, “Cyclobutanes- and azetidine-containing mono and spirocyclic compounds as αV integrin inhibitors” (BRISTOL-MYERS SQUIBB COMPANY, priority 2016, dated 2023).

Target: T1, human αVβ6 (Homo sapiens, UniProt P06756+P18564)
T1 construct: purchased R & D systems 3817-AV
Experiment: human αVβ6 HTRF binding assay
Conditions: alternatively SPA-based assay
Outline: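 Biotinylated recombinant human αVβ6 (1.25 nM final) incubated with FITC-fibronectin (5 nM final) 1 h at RT, then streptavidin-terbium (0.625 nM final) added and left overnight at RT in the dark before HTRF reading. Buffer: 20 mM Tris pH 7.4, 1 mM MgCl2, 1 mM MnCl2, 0.01% Tween 20, 0.01% BSA.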

T1 sequence (P06756 31-992 limits assumed): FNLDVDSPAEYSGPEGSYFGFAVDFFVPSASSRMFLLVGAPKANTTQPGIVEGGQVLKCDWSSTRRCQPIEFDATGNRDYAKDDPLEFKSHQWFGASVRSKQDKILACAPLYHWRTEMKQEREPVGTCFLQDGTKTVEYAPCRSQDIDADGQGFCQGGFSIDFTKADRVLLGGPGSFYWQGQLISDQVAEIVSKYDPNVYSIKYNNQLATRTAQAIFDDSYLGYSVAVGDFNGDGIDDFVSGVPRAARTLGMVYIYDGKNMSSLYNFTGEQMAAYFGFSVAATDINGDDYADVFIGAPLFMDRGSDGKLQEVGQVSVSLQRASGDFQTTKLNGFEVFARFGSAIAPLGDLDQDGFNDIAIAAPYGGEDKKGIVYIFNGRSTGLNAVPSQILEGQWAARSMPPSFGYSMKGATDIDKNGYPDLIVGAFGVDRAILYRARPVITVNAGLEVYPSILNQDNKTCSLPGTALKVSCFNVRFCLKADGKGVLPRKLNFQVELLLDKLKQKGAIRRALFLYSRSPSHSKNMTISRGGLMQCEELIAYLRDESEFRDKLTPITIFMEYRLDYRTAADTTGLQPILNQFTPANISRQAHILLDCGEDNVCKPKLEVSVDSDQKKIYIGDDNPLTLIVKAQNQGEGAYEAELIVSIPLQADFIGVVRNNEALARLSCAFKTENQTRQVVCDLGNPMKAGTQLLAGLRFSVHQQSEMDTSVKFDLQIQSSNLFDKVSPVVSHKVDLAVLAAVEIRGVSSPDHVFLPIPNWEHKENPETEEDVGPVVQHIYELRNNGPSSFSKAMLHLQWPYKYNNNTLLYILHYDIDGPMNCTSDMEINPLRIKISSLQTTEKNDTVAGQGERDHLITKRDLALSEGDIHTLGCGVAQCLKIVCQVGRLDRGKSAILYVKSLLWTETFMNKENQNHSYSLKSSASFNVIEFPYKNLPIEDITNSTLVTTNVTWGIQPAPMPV
T1 sequence (P18564 22-707 limits assumed): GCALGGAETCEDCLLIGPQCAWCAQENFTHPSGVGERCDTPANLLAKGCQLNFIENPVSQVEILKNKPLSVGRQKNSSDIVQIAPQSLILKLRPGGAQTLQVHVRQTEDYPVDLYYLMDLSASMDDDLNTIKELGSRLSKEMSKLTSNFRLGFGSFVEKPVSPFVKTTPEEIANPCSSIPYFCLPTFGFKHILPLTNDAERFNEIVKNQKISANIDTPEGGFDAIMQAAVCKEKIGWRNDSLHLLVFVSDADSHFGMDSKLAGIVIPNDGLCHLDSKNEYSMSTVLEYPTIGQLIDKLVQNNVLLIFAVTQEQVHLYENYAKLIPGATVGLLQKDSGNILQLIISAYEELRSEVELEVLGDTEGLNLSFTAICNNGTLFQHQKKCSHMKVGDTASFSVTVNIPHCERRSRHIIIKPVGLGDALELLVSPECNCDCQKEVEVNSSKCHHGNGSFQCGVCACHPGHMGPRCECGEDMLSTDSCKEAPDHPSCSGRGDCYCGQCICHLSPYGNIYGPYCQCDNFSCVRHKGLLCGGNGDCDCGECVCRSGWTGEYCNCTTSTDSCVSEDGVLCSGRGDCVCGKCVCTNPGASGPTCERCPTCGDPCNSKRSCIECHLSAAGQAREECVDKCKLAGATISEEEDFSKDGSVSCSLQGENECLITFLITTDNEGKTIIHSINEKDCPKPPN

Point of comparison: `O=C(O)C[C@@H](c1cnc2ccccc2c1)N1CC(F)(CCCCc2ccc3c(n2)NCCC3)C1` [Example 166], IC50 2.2 nM. Against it:
- O=C(O)C[C@@H](c1cnc2ccccc2c1)N1CC(CCCCc2ccc3c(n2)NCCC3)C1 [Example 153] — 2-fold lower, 1.1 nM
- O=C(O)C[C@@H](c1ccc(F)c(F)c1)N1CC(CCCCc2ccc3c(n2)NCCC3)C1 [Example 154] — 2-fold lower, 1.1 nM
- O=C(O)C[C@@H](c1ccc2c(c1)OCC2)N1CC(CCCCc2ccc3c(n2)NCCC3)C1 [Example 155] — within 1.5-fold, 1.5 nM
- COc1ncc([C@H](CC(=O)O)N2CC(CCCCc3ccc4c(n3)NCCC4)C2)cn1 [Example 156] — within 1.5-fold, 2.9 nM
- O=C(O)C[C@@H](c1cncnc1)N1CC(CCCCc2ccc3c(n2)NCCC3)C1 [Example 157] — within 1.5-fold, 3 nM
- COc1ccc([C@H](CC(=O)O)N2CC(C)(CCCCc3ccc4c(n3)NCCC4)C2)cc1F [Example 158, (S)-3-(3-fluoro-4-methoxyphenyl)-3-(3-methyl-3-(4-(5,6,7,8-tetrahydro-1,8-naphthyridin-2-yl)butyl)azetidin-1-yl)propanoic acid] — 2-fold lower, 1.1 nM
- CC1(CCCCc2ccc3c(n2)NCCC3)CN([C@@H](CC(=O)O)c2cnc3ccccc3c2)C1 [Example 159] — within 1.5-fold, 1.5 nM
- CC1(CCCCc2ccc3c(n2)NCCC3)CN([C@@H](CC(=O)O)c2cc(F)cc(F)c2)C1 [Example 160] — 1.7-fold lower, 1.3 nM
- CC1(CCCCc2ccc3c(n2)NCCC3)CN([C@@H](CC(=O)O)c2ccc(F)c(F)c2)C1 [Example 161] — 2.6-fold lower, 0.85 nM
- O=C(O)C[C@@H](c1cc(F)cc(F)c1)N1CC(F)(CCCCc2ccc3c(n2)NCCC3)C1 [Example 162, (S)-3-(3,5-difluorophenyl)-3-(3-fluoro-3-(4-(5,6,7,8-tetrahydro-1,8-naphthyridin-2-yl)butyl)azetidin-1-yl)propanoic acid] — within 1.5-fold, 2 nM
- COc1ccc([C@H](CC(=O)O)N2CC(F)(CCCCc3ccc4c(n3)NCCC4)C2)cn1 [Example 163] — within 1.5-fold, 2.4 nM
- O=C(O)C[C@@H](c1ccc(F)c(F)c1)N1CC(F)(CCCCc2ccc3c(n2)NCCC3)C1 [Example 164] — within 1.5-fold, 2.6 nM
- COc1ccc([C@H](CC(=O)O)N2CC(F)(CCCCc3ccc4c(n3)NCCC4)C2)cc1F [Example 165] — within 1.5-fold, 2.5 nM
- Cc1ncc([C@H](CC(=O)O)N2CC(F)(CCCCc3ccc4c(n3)NCCC4)C2)cn1 [Example 167] — within 1.5-fold, 3.3 nM
- COc1ccc([C@H](CC(=O)O)N2CC(CCCc3ccc4c(n3)NCCC4)C2)cc1F [Example 168, (S)-3-(3-Fluoro-4-methoxyphenyl)-3-(3-(3-(5,6,7,8-tetrahydro-1,8-naphthyridin-2-yl)propyl)azetidin-1-yl)propanoic acid] — within 1.5-fold, 2 nM
- COc1ccc([C@H](CC(=O)O)N2CC(CCCc3ccc4c(n3)NCCC4)C2)cn1 [Example 169] — 1.8-fold higher, 4 nM
- O=C(N[C@@H](CC(=O)N1CC(CCc2ccc3c(n2)NCCC3)C1)C(=O)O)OCC1CCC1 [Example 174, (S)-2-(((cyclobutylmethoxy)carbonyl)amino)-4-oxo-4-(3-(2-(5,6,7,8-tetrahydro-1,8-naphthyridin-2-yl)ethyl)azetidin-1-yl)butanoic acid] — 31-fold higher, 68 nM
- CCCOC(=O)N[C@@H](CC(=O)N1CC(CCc2ccc3c(n2)NCCC3)C1)C(=O)O [Example 175] — 330-fold higher, 735 nM
- O=C(N[C@@H](CC(=O)N1CC(CCc2ccc3c(n2)NCCC3)C1)C(=O)O)OCc1cccc(F)c1 [Example 176] — 130-fold higher, 294 nM
- COc1ccc(C(NC(=O)C2CC(CCc3ccc4c(n3)NCCC4)C2)C(C)(C)C(=O)O)cn1 (stereo not drawn) [Example 191] — 2000-fold higher, 4300 nM
- COc1ccc(C(NC(=O)C2CC(CCc3ccc4c(n3)NCCC4)C2)C(C)(C)C(=O)O)cn1 (stereo not drawn) [Example 192] — 2000-fold higher, 4400 nM
- CCOC(=O)[C@H](CNC(=O)[C@H]1C[C@@H](Cc2ccc3c(n2)NCCC3)C1)NC(=O)OCc1ccccc1 [Example 195, Ethyl (S)-2-(((benzyloxy)carbonyl)amino)-3-(cis-3-((5,6,7,8-tetrahydro-1,8-naphthyridin-2-yl)methyl)cyclobutane-1-carboxamido)propanoate] — 5.9-fold higher, 13 nM
- O=C(N[C@@H](CNC(=O)[C@H]1C[C@@H](Cc2ccc3c(n2)NCCC3)C1)C(=O)O)OCc1ccccc1 [Example 196, (S)-2-(((Benzyloxy)carbonyl)amino)-3-(cis-3-((5,6,7,8-tetrahydro-1,8-naphthyridin-2-yl)methyl)cyclobutane-1-carboxamido)propanoic acid] — 2.3-fold higher, 5.1 nM
- CCCOC(=O)N[C@@H](CNC(=O)[C@H]1C[C@@H](Cc2ccc3c(n2)NCCC3)C1)C(=O)O [Example 198] — within 1.5-fold, 1.9 nM
- O=C(N[C@@H](CNC(=O)[C@H]1C[C@@H](Cc2ccc3c(n2)NCCC3)C1)C(=O)O)OCC1CCC1 [Example 199] — the same, 2.2 nM
- Cc1cc(C)c(S(=O)(=O)N[C@@H](CNC(=O)[C@H]2C[C@@H](Cc3ccc4c(n3)NCCC4)C2)C(=O)O)c(C)c1 [Example 200, (S)-3-(cis-3-((5,6,7,8-Tetrahydro-1,8-naphthyridin-2-yl)methyl)-cyclobutane-1-carboxamido)-2-((2,4,6-trimethylphenyl)sulfonamido)-propanoic acid] — 1.7-fold higher, 3.8 nM
- COc1ccc([C@H](CC(=O)O)NC(=O)[C@H]2C[C@@H](Cc3ccc4c(n3)NCCC4)C2)cc1F [Example 201, (S)-3-(3-fluoro-4-methoxyphenyl)-3-((1s,3R)-3-((5,6,7,8-tetrahydro-1,8-naphthyridin-2-yl)methyl)cyclobutane-1-carboxamido)propanoic acid] — within 1.5-fold, 3.2 nM
- COc1ccc(C(CC(=O)O)N2CC3(CC(CCc4ccc5c(n4)NCCC5)C3)C2)cc1F (stereo not drawn) [Example 204, 3-(3-fluoro-4-methoxyphenyl)-3-(6-(2-(5,6,7,8-tetrahydro-1,8-naphthyridin-2-yl)ethyl)-2-azaspiro[3.3]heptan-2-yl)propanoic acid] — the same, 2.2 nM
- COc1ccc(C(CC(=O)O)N2CC3(CC(CCc4ccc5c(n4)NCCC5)C3)C2)cn1 (stereo not drawn) [Example 205] — 1.7-fold higher, 3.7 nM
- Cc1ncc(C(CC(=O)O)N2CC3(CC(CCc4ccc5c(n4)NCCC5)C3)C2)cn1 (stereo not drawn) [Example 206] — within 1.5-fold, 3.3 nM
- Cc1cc(C)n(-c2cccc(C(CC(=O)O)N3CC4(CC(CCc5ccc6c(n5)NCCC6)C4)C3)c2)n1 (stereo not drawn) [Example 207] — within 1.5-fold, 2.8 nM
- COc1ccc(C(CC(=O)O)N2CC3(CC(Cc4ccc5c(n4)NCCC5)C3)C2)cn1 (stereo not drawn) [Example 208, 3-(6-methoxypyridin-3-yl)-3-(6-((5,6,7,8-tetrahydro-1,8-naphthyridin-2-yl)methyl)-2-azaspiro[3.3]heptan-2-yl)propanoic acid] — within 1.5-fold, 2.4 nM
- Cc1ncc(C(CC(=O)O)N2CC3(CC(Cc4ccc5c(n4)NCCC5)C3)C2)cn1 (stereo not drawn) [Example 209, 3-(2-methylpyrimidin-5-yl)-3-(6-((5,6,7,8-tetrahydro-1,8-naphthyridin-2-yl)methyl)-2-azaspiro[3.3]heptan-2-yl)propanoic acid] — 3.1-fold higher, 6.8 nM
- COc1ccc(C(CC(=O)O)N2CC3(CC(Cc4ccc5c(n4)NCCC5)C3)C2)cc1F (stereo not drawn) [Example 210, 3-(3-fluoro-4-methoxyphenyl)-3-(6-((5,6,7,8-tetrahydro-1,8-naphthyridin-2-yl)methyl)-2-azaspiro[3.3]heptan-2-yl)propanoic acid] — 2.5-fold higher, 5.6 nM
- Cc1cc(C)n(-c2cccc(C(CC(=O)O)N3CC4(CC(Cc5ccc6c(n5)NCCC6)C4)C3)c2)n1 (stereo not drawn) [Example 211, 3-(3-(3,5-dimethyl-1H-pyrazol-1-yl)phenyl)-3-(6-((5,6,7,8-tetrahydro-1,8-naphthyridin-2-yl)methyl)-2-azaspiro[3.3]heptan-2-yl)propanoic acid] — 1.6-fold higher, 3.6 nM
- Cc1ncc([C@@H](CC(=O)O)N2CC(COCCc3ccc4c(n3)NCCC4)C2)cn1 [example 128, (R)-3-(2-methylpyrimidin-5-yl)-3-(3-((2-(5,6,7,8-tetrahydro-1,8-naphthyridin-2-yl)ethoxy)methyl)azetidin-1-yl)propanoic acid] — 17-fold higher, 38 nM
- Cc1ncc([C@H](CC(=O)O)N2CC(COCCc3ccc4c(n3)NCCC4)C2)cn1 [example 129, (S)-3-(2-methylpyrimidin-5-yl)-3-(3-((2-(5,6,7,8-tetrahydro-1,8-naphthyridin-2-yl)ethoxy)methyl)azetidin-1-yl)propanoic acid] — within 1.5-fold, 3.2 nM
- Cc1ncc([C@H](CC(=O)O)N2CC(OCCCc3ccc4c(n3)NCCC4)C2)cn1 [example 131, (S)-3-(2-methylpyrimidin-5-yl)-3-(3-(3-(5,6,7,8-tetrahydro-1,8-naphthyridin-2-yl)propoxy)azetidin-1-yl)propanoic acid] — 3.4-fold higher, 7.5 nM
- Cc1ncc([C@@H](CC(=O)O)N2CC(OCCCc3ccc4c(n3)NCCC4)C2)cn1 [example 132, (R)-3-(2-methylpyrimidin-5-yl)-3-(3-(3-(5,6,7,8-tetrahydro-1,8-naphthyridin-2-yl)propoxy)azetidin-1-yl)propanoic acid] — 11-fold higher, 25 nM
- (S)-Ethyl 3-(6-methoxypyridin-3-yl)-3-(1-methyl-3-(2-(5,6,7,8-tetrahydro-1,8-naphthyridin-2-yl)ethyl)cyclobutanecarboxamido)propanoate [Example 15] — 2.4-fold higher, 5.2 nM
- (S)-Ethyl 3-(6-methoxypyridin-3-yl)-3-(1-methyl-3-(2-(5,6,7,8-tetrahydro-1,8-naphthyridin-2-yl)ethyl)cyclobutanecarboxamido)propanoate [Example 16] — within 1.5-fold, 2.6 nM
